This is an account of results in patent US20260176267A1, “PREPARATION OF IMIDAZOPYRIDINE AND IMIDAZOPYRIDAZINE DERIVATIVES AS NOVEL DIACYLGLYCERIDE O-ACYLTRANSFERASE 2 INHIBITORS” (Merck Sharp & Dohme LLC, priority 2022, published 2026).

A value given as a limit tells only on which side of the number the result lay.

A word on the IC50: it is the concentration that inhibits the measured activity by half. Higher therefore signals weaker potency.

The target of the assay is T1, human DGAT2 (hDGAT2) (Homo sapiens, UniProt Q96PD7).
T1 construct: made in house; host or cells: Sf-9 insect cells (baculovirus), membrane fraction
T1 sequence (Q96PD7 1-388): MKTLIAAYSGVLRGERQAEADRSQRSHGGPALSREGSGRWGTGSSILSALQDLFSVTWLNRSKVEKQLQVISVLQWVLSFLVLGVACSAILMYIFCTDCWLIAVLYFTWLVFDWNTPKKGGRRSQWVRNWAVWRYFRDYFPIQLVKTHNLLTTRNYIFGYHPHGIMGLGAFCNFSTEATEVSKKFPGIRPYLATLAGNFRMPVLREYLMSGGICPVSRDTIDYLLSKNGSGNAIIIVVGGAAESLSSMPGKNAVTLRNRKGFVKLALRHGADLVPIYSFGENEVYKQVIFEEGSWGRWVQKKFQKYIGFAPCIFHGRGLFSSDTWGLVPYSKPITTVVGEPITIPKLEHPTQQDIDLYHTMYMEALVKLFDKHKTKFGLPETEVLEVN
Kind of assay: DGAT2 Enzymatic Activity Assay. The conditions noted are these: membrane prep of Sf-9 cells expressing hDGAT2; 13C18-triolein product by LC/MS/MS; 25 μM diolein, 5 μM 13C oleoyl-CoA, rt. The assay is classed as biochemical. The method in brief: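 At room temperature, DGAT2 activity in baculovirus-infected Sf-9 membrane preps (human enzyme, untagged) is measured as formation of ^13C18-triolein. Product is extracted and measured by positive-mode LC/MS/MS, with the ratio to spiked ^13C21-triolein giving inhibition and IC50.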

With `Cc1c(C(=O)NC2(C)CCS(=O)(=O)CC2)nc2ccc(Oc3nccc(Cl)c3OCC(F)(F)F)cn12` [Example 109, 6-[[4-chloro-3-(2,2,2-trifluoroethoxy)-2-pyridyl]oxy]-3-methyl-N-(4-methyl-1,1-dioxo-thian-4-yl)imidazo[1,2-a]pyridine-2-carboxamide], the midpoint of inhibition, the IC50, lay at 224 nM.

For the compound `Cc1c(C(=O)NCC2(C)CS(=O)(=O)C2)nc2ccc(Oc3ncc(F)cc3OCC(F)(F)F)cn12` [Example 110, 6-[[5-fluoro-3-(2,2,2-trifluoroethoxy)-2-pyridyl]oxy]-3-methyl-N-[(3-methyl-1,1-dioxo-thietan-3-yl)methyl]imidazo[1,2-a]pyridine-2-carboxamide], the IC50 came to 957 nM.

Consider `Cc1ccc(OCC(F)(F)F)c(Oc2ccc3nc(C(=O)NC4(C)CCS(=O)(=O)CC4)c(C)n3c2)n1` [Example 111], for which the IC50 was determined as 298 nM.

`Cc1c(C(=O)NC2(CC(F)(F)F)CCCOC2)nc2ccc(Oc3ncccc3OCC(F)(F)F)cn12` (stereo not drawn) [Example 112, 3-methyl-6-[[3-(2,2,2-trifluoroethoxy)-2-pyridyl]oxy]-N-[3-(2,2,2-trifluoroethyl)tetrahydropyran-3-yl]imidazo[1,2-a]pyridine-2-carboxamide]: the midpoint of inhibition, the IC50, lay at 3380 nM.

`Cc1c(C(=O)N[C@H]2CCC(=O)NC2)nc2ccc(Oc3ncccc3OCC(F)(F)F)cn12` [Example 113, 3-methyl-N-[(3S)-6-oxo-3-piperidyl]-6-[[3-(2,2,2-trifluoroethoxy)-2-pyridyl]oxy]imidazo[1,2-a]pyridine-2-carboxamide] registered an IC50 of more than 9990 nM.

`CCOc1cccnc1Oc1ccc2nc(C(=O)NC3(C)CS(=O)(=O)C3)c(CC)n2c1` [Example 114, 6-[(3-ethoxy-2-pyridyl)oxy]-3-ethyl-N-(3-methyl-1,1-dioxo-thietan-3-yl)imidazo[1,2-a]pyridine-2-carboxamide]: the midpoint of inhibition, the IC50, lay at 64 nM.

With `CCc1c(C(=O)NC2(C)CCS(=O)(=O)CC2)nc2ccc(Oc3ncccc3OCC(F)(F)F)cn12` [Example 115, 3-ethyl-N-(4-methyl-1,1-dioxo-thian-4-yl)-6-[[3-(2,2,2-trifluoroethoxy)-2-pyridyl]oxy]imidazo[1,2-a]pyridine-2-carboxamide], half-maximal inhibition (IC50) was put at 44 nM.

`CC(C)c1c(C(=O)NC2(C)CCS(=O)(=O)CC2)nc2ccc(Oc3ncccc3OCC(F)(F)F)cn12` [Example 116, 3-isopropyl-N-(4-methyl-1,1-dioxo-thian-4-yl)-6-[[3-(2,2,2-trifluoroethoxy)-2-pyridyl]oxy]imidazo[1,2-a]pyridine-2-carboxamide] showed an IC50 of 413 nM.

`Cc1c(C(=O)NC2(C)CCS(=O)(=O)CC2)nc2c(F)cc(Oc3ncccc3OCC(F)(F)F)cn12` [Example 117, 8-fluoro-3-methyl-N-(4-methyl-1,1-dioxo-thian-4-yl)-6-[[3-(2,2,2-trifluoroethoxy)-2-pyridyl]oxy]imidazo[1,2-a]pyridine-2-carboxamide]: the IC50 amounted to 1.2 nM.

`Cc1c(C(=O)NC2(C)CCS(=O)(=O)CC2)nc2cc(F)c(Oc3ncc(F)cc3OCC(F)(F)F)cn12` [Example 118, 7-fluoro-6-[[5-fluoro-3-(2,2,2-trifluoroethoxy)-2-pyridyl]oxy]-3-methyl-N-(4-methyl-1,1-dioxo-thian-4-yl)imidazo[1,2-a]pyridine-2-carboxamide] returned an IC50 of 1.4 nM.

As for `Cc1c(C(=O)NC2(C)CCS(=O)(=O)CC2)nc2cc(F)c(Oc3ncc(Cl)cc3OCC(F)(F)F)cn12` [Example 119, 6-[[5-chloro-3-(2,2,2-trifluoroethoxy)-2-pyridyl]oxy]-7-fluoro-3-methyl-N-(4-methyl-1,1-dioxo-thian-4-yl)imidazo[1,2-a]pyridine-2-carboxamide], half-maximal inhibition (IC50) was put at 1 nM.

`Cc1c(C(=O)NC2(C)CS(=O)(=O)C2)nc2cc(F)c(Oc3ncc(Cl)cc3OCC(F)(F)F)cn12` [Example 120, 6-[[5-chloro-3-(2,2,2-trifluoroethoxy)-2-pyridyl]oxy]-7-fluoro-3-methyl-N-(3-methyl-1,1-dioxo-thietan-3-yl)imidazo[1,2-a]pyridine-2-carboxamide] gave an IC50 of 4.3 nM.

`Cc1c(C(=O)NC2(C)CS(=O)(=O)C2)nc2cc(F)c(Oc3ncc(F)cc3OCC(F)(F)F)cn12` [Example 121, 7-fluoro-6-[[5-fluoro-3-(2,2,2-trifluoroethoxy)-2-pyridyl]oxy]-3-methyl-N-(3-methyl-1,1-dioxo-thietan-3-yl)imidazo[1,2-a]pyridine-2-carboxamide]: the IC50 came out at 41 nM.

`Cc1c(C(=O)NC2(C)CCS(=O)(=O)CC2)nc2cc(F)c(Oc3nccnc3OCC(F)(F)F)cn12` [Example 122, 7-fluoro-3-methyl-N-(4-methyl-1,1-dioxo-thian-4-yl)-6-[3-(2,2,2-trifluoroethoxy)pyrazin-2-yl]oxy-imidazo[1,2-a]pyridine-2-carboxamide] displayed an IC50 of 7.7 nM.

The compound `Cc1c(C(=O)NC2(C)CCS(=O)(=O)CC2)nc2ccc(OCc3ncccc3OCC(F)(F)F)cn12` [Example 123, 3-methyl-N-(4-methyl-1,1-dioxo-thian-4-yl)-6-[[3-(2,2,2-trifluoroethoxy)-2-pyridyl]methoxy]imidazo[1,2-a]pyridine-2-carboxamide] gave an IC50 of 93 nM.

`CCOc1ccccc1COc1ccc2nc(C(=O)NC3(C)CCS(=O)(=O)CC3)c(C)n2c1` [Example 124, 6-[(2-ethoxyphenyl)methoxy]-3-methyl-N-(4-methyl-1,1-dioxo-thian-4-yl)imidazo[1,2-a]pyridine-2-carboxamide] came in with an IC50 of 5.7 nM.

Take `CCOc1cccnc1COc1ccc2nc(C(=O)NC3(C)CCS(=O)(=O)CC3)c(C)n2c1` [Example 125, 6-[(3-ethoxy-2-pyridyl)methoxy]-3-methyl-N-(4-methyl-1,1-dioxo-thian-4-yl)imidazo[1,2-a]pyridine-2-carboxamide]: half-maximal inhibition (IC50) required 4.9 nM.

`Cc1c(C(=O)NC2(C)CCS(=O)(=O)CC2)nc2ccc(OCc3ccc(F)cc3)cn12` [Example 126, 6-[(4-fluorophenyl)methoxy]-3-methyl-N-(4-methyl-1,1-dioxo-thian-4-yl)imidazo[1,2-a]pyridine-2-carboxamide] showed an IC50 of 465 nM.

`Cc1c(C(=O)NC2(C)CCS(=O)(=O)CC2)nc2ccc(OCc3ccccc3OC(F)F)cn12` [Example 127, 6-[[2-(difluoromethoxy)phenyl]methoxy]-3-methyl-N-(4-methyl-1,1-dioxo-thian-4-yl)imidazo[1,2-a]pyridine-2-carboxamide] came in with an IC50 of 6.5 nM.

As to `Cc1c(C(=O)NC2(C)CCS(=O)(=O)CC2)nc2ccc(OCCC(F)(F)F)cn12` [Example 128, 3-methyl-N-(4-methyl-1,1-dioxo-thian-4-yl)-6-(3,3,3-trifluoropropoxy)imidazo[1,2-a]pyridine-2-carboxamide], the IC50 was more than 9990 nM.

`CCOCC(C)(C)COc1ccc2nc(C(=O)NC3(C)CCS(=O)(=O)CC3)c(C)n2c1` [Example 129, 6-(3-ethoxy-2,2-dimethyl-propoxy)-3-methyl-N-(4-methyl-1,1-dioxo-thian-4-yl)imidazo[1,2-a]pyridine-2-carboxamide] gave an IC50 of 161 nM.

As to `CC1(NC(=O)c2nc3ccc(Oc4ncccc4OCC(F)(F)F)cn3c2Cl)CCS(=O)(=O)CC1` [Example 130, 3-chloro-N-(4-methyl-1,1-dioxo-thian-4-yl)-6-[[3-(2,2,2-trifluoroethoxy)-2-pyridyl]oxy]imidazo[1,2-a]pyridine-2-carboxamide], inhibition was half-maximal at 3.3 nM (IC50).

`CC1(NC(=O)c2nc3ccc(Oc4ncccc4OCC(F)(F)F)cn3c2O)CCS(=O)(=O)CC1` [Example 131, 3-hydroxy-N-(4-methyl-1,1-dioxo-thian-4-yl)-6-[[3-(2,2,2-trifluoroethoxy)-2-pyridyl]oxy]imidazo[1,2-a]pyridine-2-carboxamide] registered an IC50 of 34 nM.

With `CC1(NC(=O)c2nc3ccc(Oc4ncccc4OCC(F)(F)F)cn3c2C(=O)O)CCS(=O)(=O)CC1` [Example 132, 2-((4-methyl-1,1-dioxidotetrahydro-2H-thiopyran-4-yl)carbamoyl)-6-((3-(2,2,2-trifluoroethoxy)pyridin-2-yl)oxy)imidazo[1,2-a]pyridine-3-carboxylic acid], the IC50 is more than 9990 nM.

For `CC1(NC(=O)c2nc3ccc(Oc4ncccc4OCC(F)(F)F)cn3c2C(N)=O)CCS(=O)(=O)CC1` [Example 133, N2-(4-methyl-1,1-dioxo-thian-4-yl)-6-[[3-(2,2,2-trifluoroethoxy)-2-pyridyl]oxy-]imidazo[1,2-a]pyridine-2,3-dicarboxamide], the IC50 came out at 28 nM.

`COc1c(C(=O)NC2(C)CCS(=O)(=O)CC2)nc2ccc(Oc3ncccc3OCC(F)(F)F)cn12` [Example 134, 3-methoxy-N-(4-methyl-1,1-dioxo-thian-4-yl)-6-[[3-(2,2,2-trifluoroethoxy)-2-pyridyl]oxy]imidazo[1,2-a]pyridine-2-carboxamide]: the IC50 was determined as 6.2 nM.

For `COc1c(C(=O)NC2(C)CS(=O)(=O)C2)nc2ccc(Oc3ncc(F)cc3OCC(F)(F)F)cn12` [Example 135, 6-[[5-fluoro-3-(2,2,2-trifluoroethoxy)-2-pyridyl]oxy]-3-methoxy-N-(3-methyl-1,1-dioxo-thietan-3-yl)imidazo[1,2-a]pyridin-1-ium-2-carboxamide;2,2,2-trifluoroacetate], half-maximal inhibition (IC50) was put at 62 nM.
